Results on 35 compounds are retold here after article PMC6948153 (ACS chemical biology, 2019).

“Also recorded” adds a separate entry of the source. Where two headings read alike, the source gives them in different places.

Data set [1] concerns the target T1, RhlI (Pseudomonas aeruginosa, UniProt P54291). Nature of the data set: Substrate kinetics of acyl-ACPs with RhlI. To be noted: acyl-ACP substrate with RhlI. Format: biochemical.
Another data set deals with tag-free RhlI (Pseudomonas aeruginosa, UniProt P54291). Nature of the data set: Km and IC50 with tag-free RhlI. Format: biochemical.
The target of data set [2] is T1, RhlI. Nature of the data set: Inhibition of RhlI by inert alkyl-ACP / alkyl-CoA substrate analogs. To be noted: for inhibition mode: substrate-velocity measurements at different alkyl-ACP concentrations; for effect of preincubation of RhlI with inhibitor on % inhibition or IC50: inhibition neither slow-binding nor time-dependent. Format: biochemical.
The target of data set [3] is T1, RhlI. Nature of the data set: RhlI enzymatic assay. Particulars: for effect on RhlI activity (inhibition / activation): initial rate with increasing concentrations of compound. Format: biochemical.
Data set [4] addresses T1, RhlI. To be noted: N-butyryl L-homoserine lactone even at 1 mM; ref 21 (Parsek et al.); cited from earlier work.
Setting [5] is: inert substrate analog with RhlI.

tag-free RhlI, sequence (P54291 whole entry): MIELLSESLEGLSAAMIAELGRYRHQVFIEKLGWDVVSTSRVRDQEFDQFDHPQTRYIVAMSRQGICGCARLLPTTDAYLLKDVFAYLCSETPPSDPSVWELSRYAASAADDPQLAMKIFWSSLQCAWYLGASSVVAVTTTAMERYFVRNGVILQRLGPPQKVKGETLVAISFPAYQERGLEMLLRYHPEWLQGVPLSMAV
T1 sequence (P54291 whole entry): as above

In general, Km refers to the concentration of substrate that gives half-maximal velocity. As a reminder, the kcat is the maximal rate divided by the concentration of active sites. In the case of octanoyl-ACP [compound 82], in the data set with RhlI [1], the Michaelis-Menten constant (Km) turned out to be 0.4 ± 0.06 µM and the kcat was 0.01 ± 0.00033 s⁻¹. Besides, in the data set with tag-free RhlI, the “Km with untagged RhlI compared with MBP-tagged enzyme” value was “almost identical”.
Broadly, the IC50 is the concentration needed to halve the response being measured. One may read the Ki as the dissociation constant of the complex between target and ligand, obtained from inhibition or displacement. Low readings indicate a stronger hold on the target, high ones a looser hold on the target. For decyl-ACP [compound 88], in the data set with RhlI [2] (setting [5]), it took 0.1 ± 0.04 µM to reach half-maximal inhibition (IC50) and the affinity corresponds to a Ki of 4.8 ± 0.3 µM. Also, the inhibition mode entry in the data set with RhlI [2] is on record as “noncompetitive”.
In turn, `CCCCCCCCCCCC(=O)N[C@@H]1CCSC1=O` [compound 60, C12-D-homocysteine thiolactone] displayed an IC50 against RhlI [3] of 11 ± 1 µM. The “fold lower IC50 than L-thiolactone counterpart compound 46” value on RhlI [3] (IC50 of 60 versus IC50 of 46) is recorded as “about 34 fold”.
For the compound butyryl-ACP [compound 80], in the data set with RhlI [1], the Km amounted to 7.3 ± 2.1 µM and the kcat was determined as 0.0433 ± 0.005 s⁻¹. In addition, in the data set with RhlI [1] (listed as C4-ACP), the Km worked out at 7 µM. Moreover, the “Km with untagged RhlI compared with MBP-tagged enzyme” value with tag-free RhlI is on record as “almost identical”.
On to `CCCCCC(=O)CC(=O)N[C@@H]1CCOC1=O` [compound 35, 3-oxoC8-D-HSL], for which half-maximal inhibition against RhlI [3] (IC50) required 282 ± 34 µM.
As for `CCCCCC(=O)O` [compound 76, hexanoic acid], the “effect on RhlI activity (inhibition / activation)” value (from here on “effect … (inhibition / activation)”) on RhlI [3] is “None of these compounds or combinations had any effect on RhlI activity”.
As usually defined, the EC50 is the concentration giving half of the maximal effect. As for `CCCC(=O)CC(=O)N[C@@H]1CCSC1=O` [compound 61, 3-oxoC6-D-HCTL], at RhlI [3], the EC50 was 1510 ± 110 µM and the “effect … (inhibition / activation)” value is listed as “activated”.
Turning to `CCCCCCCC(=O)CC(=O)N[C@@H]1CCSC1=O` [compound 63, 3-oxoC10-D-HCTL], on RhlI [3], the response was half-maximal at 57 ± 23 µM (EC50) and the “effect … (inhibition / activation)” value was “activated”.
On to “holo-ACP: holo acyl carrier protein, product of the RhlI reaction”, for which the “inhibition of RhlI” value in the data set with RhlI [4] was “weak inhibitors”.
`CCCCCCCCCCCC(=O)N[C@H]1CCSC1=O` [compound 46, C12-L-HCTL] registered an IC50 at RhlI [3] of 387 ± 89 µM.
Turning to `CCCC(=O)CC(=O)N[C@@H]1CCOC1=O` [compound 34, 3-oxoC6-D-HSL], on RhlI [3], the EC50 turned out to be 224 ± 55 µM.
Consider `CCCCSCCNC(=O)CCNC(=O)[C@H](O)C(C)(C)COP(=O)(O)OP(=O)(O)OC[C@H]1O[C@@H](n2cnc3c(N)ncnc32)[C@H](O)[C@@H]1OP(=O)(O)O` [compound 89, butyl-CoA], for which the “inhibition of RhlI” value against RhlI [2] (up to 1 mM) is recorded as “not inhibiting”.
The compound `CCCCCCCCSCCNC(=O)CCNC(=O)[C@H](O)C(C)(C)COP(=O)(O)OP(=O)(O)OC[C@H]1O[C@@H](n2cnc3c(N)ncnc32)[C@H](O)[C@@H]1OP(=O)(O)O` [compound 91, octyl-CoA] registered an IC50 against RhlI [2] of 5.1 ± 0.8 µM.
In the data set with RhlI [2] (setting [5]), octyl-ACP [compound 87] displayed a half-maximal inhibitory concentration (IC50) of 0.06 ± 0.02 µM and a Ki of 6.5 ± 0.7 µM. Moreover, in the data set with RhlI [2], the “effect of preincubation of RhlI with inhibitor on % inhibition or IC50” value is “did not significantly alter” and the inhibition mode result was “noncompetitive”. Moreover, the “IC50 with untagged RhlI compared with MBP-tagged enzyme” value in the data set with tag-free RhlI is given as “almost identical”.
With `N[C@@H]1CCSC1=O` [compound 74, D-HCTL], the “effect … (inhibition / activation)” value on RhlI [3] was “None of these compounds or combinations had any effect on RhlI activity”.
On the same count and under the same terms, the entry for `CCCCCCCCCC(=O)O` [compound 78, decanoic acid] is “None of these compounds or combinations had any effect on RhlI activity”.
For decanoyl-ACP [compound 83], in the data set with RhlI [1], the Km worked out at 0.14 ± 0.04 µM and the kcat came to 0.00633 ± 0.00017 s⁻¹.
Turning to `CCCC(=O)N[C@H]1CCOC1=O` [compound 1, N-butyryl-L-homoserine lactone], on RhlI [4], the “inhibition of RhlI” value was “no inhibition”. Also, the “effect … (inhibition / activation)” value on RhlI [3] is recorded as “did not inhibit”.
Regarding `N[C@@H]1CCOC1=O` [compound 72, D-HSL], the “effect … (inhibition / activation)” value at RhlI [3] is “None of these compounds or combinations had any effect on RhlI activity”.
As for dodecanoyl-ACP [compound 84], in the data set with RhlI [1], the Km was determined as 0.26 ± 0.03 µM and the kcat amounted to 0.01 ± 0.00017 s⁻¹. Also, in the data set with RhlI [1] (listed as C12-ACP), the Km is around 0.2 µM.
At RhlI [3], `O=C(CCCc1ccccc1)N[C@@H]1CCOC1=O` [compound 31, 4-phenylbutanoyl-D-HSL] yielded an IC50 of 20 ± 10 µM.
In the case of `CCCCCC(=O)CC(=O)N[C@@H]1CCSC1=O` [compound 62, 3-oxoC8-D-HCTL], on RhlI [3], the EC50 is 855 ± 74 µM and the “effect … (inhibition / activation)” value was “activated”.
On to `CCCCCCCCCCCC(=O)O` [compound 79, dodecanoic acid], for which the “effect … (inhibition / activation)” value on RhlI [3] was “None of these compounds or combinations had any effect on RhlI activity”.
For the compound hexyl-ACP [compound 86], in the data set with RhlI [2] (setting [5]), half-maximal inhibition (IC50) was put at 0.7 ± 0.4 µM and the Ki is 10.6 ± 1.1 µM. Besides, the inhibition mode result with RhlI [2] is reported as “noncompetitive”.
In the case of `CCCC(=O)N[C@H]1CCSC1=O` [compound 8, C4-L-HCTL], the “effect … (inhibition / activation)” value at RhlI [3] was “failed to inhibit; also recorded: did not inhibit”.
Regarding `CCCCCCSCCNC(=O)CCNC(=O)[C@H](O)C(C)(C)COP(=O)(O)OP(=O)(O)OC[C@H]1O[C@@H](n2cnc3c(N)ncnc32)[C@H](O)[C@@H]1OP(=O)(O)O` [compound 90, hexyl-CoA], on RhlI [2], the IC50 worked out at 70 ± 10 µM.
In the case of `CCCC(=O)N[C@@H]1CCOC1=O` [compound 5, C4-D-HSL], at RhlI [3], the IC50 was 688 ± 91 µM and the “effect … (inhibition / activation)” value is “decreased the rate”.
With hexanoyl-ACP [compound 81], in the data set with RhlI [1], the Km turned out to be 1.2 ± 0.2 µM and the kcat is 0.0143 ± 0.00033 s⁻¹.
In the case of `CCCC(=O)O` [compound 75, butyric acid], the “effect … (inhibition / activation)” value on RhlI [3] is “None of these compounds or combinations had any effect on RhlI activity”.
Consider `CSC[C@H]1O[C@@H](n2cnc3c(N)ncnc32)[C@H](O)[C@@H]1O` [MTA], for which the “inhibition of RhlI” value at RhlI [4] is on record as “weak inhibitors”.
In the data set with RhlI [2] (setting [5]), butyl-ACP [compound 85] had an IC50 of 9.9 ± 4 µM and a Ki of 15.9 ± 0.9 µM. Further, in the data set with RhlI [2], the “effect of preincubation of RhlI with inhibitor on % inhibition or IC50” value is on record as “did not significantly alter” and the inhibition mode result was “noncompetitive”. The “IC50 with untagged RhlI compared with MBP-tagged enzyme” value with tag-free RhlI was “almost identical”.
`N[C@H]1CCOC1=O` [compound 71, L-HSL]: the “effect … (inhibition / activation)” value at RhlI [3] is on record as “None of these compounds or combinations had any effect on RhlI activity”.
As for `CCCCCCCCCC(=O)CC(=O)N[C@@H]1CCSC1=O` [compound 64, 3-oxoC12-D-HCTL], at RhlI [3], the IC50 was found to be 127 ± 70 µM and the “effect … (inhibition / activation)” value is recorded as “inhibited”.
As for `N[C@H]1CCSC1=O` [compound 73, L-HCTL], at RhlI [3], the “effect … (inhibition / activation)” value is reported as “None of these compounds or combinations had any effect on RhlI activity”.
As for `CCCCCCCCCC(=O)CC(=O)N[C@H]1CCSC1=O` [compound 55, 3-oxoC12-L-HCTL], the IC50 on RhlI [3] was found to be 621 ± 50 µM.
